The values below come from patent publication US12415939B2, “Nano-adhesive and surface primer compound and use thereof” (The Regents of the University of California, priority 2015, dated 2025).

The nature of data set [1]: Lap shear test of cured PMA resin on primed mica. The settings on record: first value of each pair (mica). The method, then: (§1) 1 wt % primer solution was spread on mica, glass, tooth enamel, or a silicon wafer and incubated for 1 min, followed by thorough washing with methanol (for MDP, P1-P3) or DMSO (for P4) and drying by flowing nitrogen. The surfaces were exposed to a basic aqueous solution (pH 9, using sodium hydroxide), incubated for 1 min, and drying by flowing nitrogen (see FIG. 52). The methacrylic comonomer blend (Bis-GMA, TEGDMA, DMAEMA and CQ) was packed in a gelatin capsule (size #4, 5-mm diameter, Torpac Inc.) and placed up on top of the primer-treated substrates. The comonomer blend was cured (or crosslinked) for 1 min using a portable dental curing lamp (Foshan Liang Ya Dental Co., LY-A180, 420-480 nm, 1200-2000 mW·cm^−2) (see FIG. 53). Uniaxial compression was applied to the capsule at a rate of 0.05 inch min^−1 using a materials testing system (MTS Bionix 200) until the capsules are separated from the substrate. The lap shear fracture measurements were repeated at least 10 times for each condition.

A short description of data set [2]: Lap shear test of cured PMA resin on primed silica/glass. The note with it: second value of each pair (silica). The method, then: as §1
A short description of data set [3]: Lap shear test of cured PMA resin on primed tooth enamel. On the set-up: species or system human. How it is done: as §1
Data set [4] in a line: Surface forces apparatus (SFA) cohesion/adhesion between thin films on mica. Format: physicochemical. The method, then: The interaction between two surfaces can be measured with nano-Newton level force resolution and Angstrom level resolution in the separation distance between the surfaces. The details of the SFA techniques have been describe in a work by Israelachvili et al. In a typical SFA experiment (FIG. 2C), the distance and the force between the surfaces are measured simultaneously. To begin with, the instrument is calibrated at large separation distances. When the two surfaces are not interacting, i.e., they are separated by large distances, the change in the separation between them is equal to the distance through which the motor moves the lower surface towards or away from the upper surface (or the upper surface driven by the piezo-tube moves towards the lower surface). However, once the surfaces are close enough to start interacting with each other, the measured separation distance deviates from the expected separation calibrated when there is no force between the surfaces. This deviation is due to the deflection of the double cantilever spring and is directly proportional to the force acting normally between the two opposing surfaces. Thus the normal force can be measured using Hooke's law, F=kΔx, where k is the spring constant of the double-cantilever spring and Δx=Dactual−Dapplied is the deflection of the spring, determined by taking the difference between the applied change in position of one of the surfaces Dapplied and the actual change in distance measured between the surfaces Dactual. The actual distance, Dactual, between the surfaces can be measured by multiple beam interferometry (MBI) and will be discussed below.
The distance between the surfaces, shape of the interface and the refractive index of the media between the surfaces can be accurately determined by Multiple Beam Interferometry (MBI) technique. In this technique, white light is directed through two back-silvered mica surfaces (or uniform and same thickness). As a white light passes between the mica surfaces, it undergoes interference due to the optical trap set up by the back silver on each of these surfaces giving rise to discrete wavelengths of light (FIG. 2C). These wavelengths of light are resolved in a spectrometer creating interference fringes known as ‘fringes of equal chromatic order’ (FECO). Since mica is birefringent, the FECO appears as doublets and termed as β and γ. Alternate fringes are termed as odd and even fringes with odd fringes having nodes at the center and even fringes with anti-nodes in the center. The FECO is then recorded on a camera and analyzed to determine the distance between the surfaces using the following equations: […]
The adhesion/cohesion energy of the synthetic zwitterionic molecules was investigated in SFA (SurForce LLC, Santa Barbara, CA). Two molecularly smooth freshly cleaved back silvered mica surfaces glued on cylindrical silica discs of radius of curvature, R˜2 cm, were mounted in the SFA and 50 μL of a colloidal dispersion of the synthetic molecules in DI water were injected between the surfaces at different concentrations (C=0.5-5 mM) and the forces between the thin films of the molecules were measured by Multiple Beam Interferometry (MBI). The adhesion forces between Z-Cat-C10 molecules on various surfaces, e.g., silica and copper, were also measured by AFM (MFP-3D, Asylum research, Goleta, CA) in DI water and ambient conditions, respectively, at room temperature. AFM probes with a silicon dioxide particle (10, 5, and 1 μm, respectively) on a silicon nitride (SN) cantilever-0.6 N m^−1 were purchased from Novascan Technologies, Inc (Ames, IA). Cantilever spring constants were measured for each force run. Images of Z-Cat-C10 coating on silicon wafer and copper plates were visualized in an AFM. […]

The nature of data set [5]: OFET characterization (saturation hole mobility). An excerpt:
The OFETs were fabricated onto nano-grooved SiO2 substrates prepared by rubbing n^++Si (500 μm)/SiO2 (300 nm) substrate (International Wafer Services Co.) with a diamond lapping disc with particle sizes of 100 nm (Allied High Tech Products Inc.) as described in detail in the previous reports. The Ni (5 nm)/Au (50 nm) source and drain electrodes were patterned on the SiO2 dielectrics through a conventional photolithography process. For OFETs with Ni source and drain electrodes, an additional Ni (10 nm) layer was deposited on top of the pre-deposited Au electrodes. All metal electrodes were deposited by electron beam evaporation at 7×10^−7 Torr. Then, the substrates were sonicated in acetone and isopropanol for cleaning, and were kept in an oven at >100° C. for overnight. After ultraviolet/ozone treatment of pre-cleaned nano-grooved SiO2 substrates for 10 min, the substrates were passivated with the Z-Cat-Ben or Z-Cat-Ben-F SAM by dropping SAM water solution (5 mM) onto the substrates for ˜1 min. The substrates were subsequently rinsed with deionized water for ˜1 min, and were kept in a low vacuum for 10 min to remove residual water. The PCDTPT (1-Material Inc.) was then cast from a chlorobenzene solution (0.25 mg mL^−1) through the sandwich casting in a nitrogen-filled glove box. The devices were then cured at 200° C. for 1 min prior to measurements, and were tested using a probe station (Signatone Co.) in a nitrogen-filled glove box. Data were collected by a Keithley 4200 system.
The field-effect mobilities in the saturation regime were extracted using the following equation, IDS=(W/2L)Cμ(VGS−VT)^2 (7) where, W is the channel width, L is the channel length, C is the gate dielectric capacitance per unit area, μ is the carrier mobility in the saturation regime, IDS is the drain-source current, and VGS is the gate-source voltage. Channel width/length is 1000/200 μm for the devices used in this study. Transistor Characteristics of OFETs with Z-Cat-Ben and Z-Cat-Ben-F: Contact Angle Measurements: […]

The nature of data set [6]: Cyclic voltammetry of catechol oxidation. The class given is physicochemical. The note with it: 5 mM in DI water. How it is done: (§2) Cyclic voltammetry was performed on a Versastat 3 potentiostat from Ametek Co. These analyses were carried out using a three-electrode cell: a Pt wire as the counter electrode, an Ag/AgCl reference electrode, and a Carbon paste electrode (CPE) served as the working electrode. CPE is the best choice for adhesive materials because of its ability to be completely polished before each experiment. Catechol auto-oxidation was avoided by performing all electrochemical experiments with degassed deionized water in a glove bag under argon. Scan rate 1 mV s-1 was used for all experiments. CV of 5 mM synthesized polymers and 5 mM methyl catechol, a simple catechol-containing compound, were compared. Oxidation of Catechol carrying molecules occurred at more positive potentials than methyl catechol, indicating the unique structure of the dispersions provide shielding effects that stabilized catechol groups (FIG. 3).
Cyclic voltammetry was performed on a Versastat 3 potentiostat from Ametek Co. (Berwyn, PA). These analyses were carried out using a three-electrode cell: a Pt wire as the counter electrode, an Ag/AgCl reference electrode, and a Carbon paste electrode (CPE) served as the working electrode. CPE is the best choice for adhesive materials because of its ability to be completely polished before each experiment.
as §2, with “s^−1” for “s-1”, “molecules” for “polymers”, “groups. Z-Cat-Ben with an oxidation peak at 840 mV is more resistant to oxidation than the other species” for “groups”, “42).” for “3).”

Data set [7] in a line: Contact angle measurements on SAM-modified substrates. The class given is physicochemical. The settings on record: SAM-modified nano-grooved SiO2. How it is done: The nano-grooved SiO2 substrates passivated with Z-Cat-Ben or Z-Cat-Ben-F SAMs were prepared with the same procedure described above. For the reference substrate, the pre-cleaned and ultraviolet/ozone-treated (for 10 min) nano-grooved SiO2 substrate was passivated with n-decyltrichlorosilane (Gelest Inc.) in toluene solution (1% by volume) at 80° C. for 20 min in ambient air. Then, the substrate was subsequently sonicated in toluene and rinsed with additional toluene several times. Anhydrous chlorobenzene (50 μL) was used as a droplet dropping on the substrates. All contact angle images were taken at the direction perpendicular to nano-grooves in the substrates using Dataphysics OCA 15EC goniometer.

Regarding `C=CC(=O)OCCC[Si](OC)(OC)OC` [Silane, 3-trimethoxysilylpropyl acrylate, reference compound], the entries for the “lap shear strength σshear,max” value in data set [1], in data set [2] and in data set [3] were 0.9±0.4 MPa, 3.8±1.1 MPa and “no increase in the lap shear strength”, respectively.
Regarding `C[N+](C)(CCCc1cc(C(F)(F)F)cc(C(F)(F)F)c1)CCOP(=O)([O-])OCCCc1ccc(O)c(O)c1` [Z-Cat-Ben-F], the “cohesion energy Wc between SAMs” value in data set [4] (5 mM in DI water, mica) is on record as 3.3±1.0 mJ/m^2. The hard-wall thickness in data set [4] (SAMs from 5 mM, mica) turned out to be 2.6±0.4 nm. In data set [4] (half of hard-wall), the “SAM thickness on each mica surface” value is listed as approximately 1.3 nm. Also, the “saturation hole mobility μ” value in data set [5] (Au source and drain electrodes) amounted to 26±5 cm^2 V^−1 s^−1. Further, the saturation hole mobility in data set [5] (Ni source and drain electrodes) came to 46±4 cm^2 V^−1 s^−1. Further, the “stability in water to oxidation (shelf life)” value in data set [6] is on record as “stable (shelf life) in water to oxidation”. Moreover, the “contact angle θ of chlorobenzene droplet” value in data set [7] is recorded as less than 10 °.
